Experimental data taken from patent publication US9018383B2, “Acylamino-substituted cyclic carboxylic acid derivatives and their use as pharmaceuticals” (Sanofi, priority 2009, dated 2015).
pIC50: −log10 of the molar value.

Biological target: human Edg-2 receptor (Homo sapiens, UniProt Q92633)
Assay: Determination of Edg-2 receptor inhibition by FLIPR measurements (LPA-mediated calcium liberation)
Assay type: cell-based
Settings: CHO cells overexpressing human Edg-2 receptor, LPA 100 nM, fluo-4 calcium fluorescence; read-out: Inhibitory concentrations IC50 for inhibition of the Edg-2 receptor
Method in brief: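 IC50 was derived from % inhibition of the baseline-corrected peak fluo-4 signal relative to DMSO, measured in triplicate. Compound was added ~5 min before 100 nM LPA (18:1) to human Edg-2–expressing CHO cells in pH 7.5 HBSS buffer with probenecid and HEPES, and fluorescence was monitored ~3 min.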

Chain of human Edg-2 receptor (Q92633 whole entry): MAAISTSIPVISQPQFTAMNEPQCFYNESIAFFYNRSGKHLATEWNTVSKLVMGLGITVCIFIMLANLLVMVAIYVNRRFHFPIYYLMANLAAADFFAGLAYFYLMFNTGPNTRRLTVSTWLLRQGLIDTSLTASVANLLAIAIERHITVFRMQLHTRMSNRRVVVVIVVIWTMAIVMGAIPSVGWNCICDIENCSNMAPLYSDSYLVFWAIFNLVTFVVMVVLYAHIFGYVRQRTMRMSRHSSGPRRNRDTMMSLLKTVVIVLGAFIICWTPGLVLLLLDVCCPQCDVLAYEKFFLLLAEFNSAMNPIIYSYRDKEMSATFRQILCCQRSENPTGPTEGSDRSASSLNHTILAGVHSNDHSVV

Row | Structure (SMILES) | pIC50
1 | CC[C@H]1CC[C@@](NC(=O)c2ccc(OC)c(OCCc3ccccc3)c2)(C(=O)O)CC1 [Example 205] | > 7.00
2 | CC[C@H]1CC[C@](NC(=O)c2ccc(OC)c(OCCc3ccccc3)c2)(C(=O)O)CC1 [Example 206] | > 7.00
3 | CC[C@H]1CC[C@@](NC(=O)c2ccc(OC)c(OCCc3cccc(Cl)c3)c2)(C(=O)O)CC1 [Example 207] | > 7.00
4 | CC[C@H]1CC[C@](NC(=O)c2ccc(OC)c(OCCc3cccc(Cl)c3)c2)(C(=O)O)CC1 [Example 208] | > 7.00
5 | CC[C@H]1CC[C@](NC(=O)c2cnc(OC)c(-c3cccc(OC(F)(F)F)c3)c2)(C(=O)O)CC1 [Example 299, cis-4-ethyl-1-{[6-methoxy-5-(3-trifluoromethoxy-phenyl)-pyridine-3-carbonyl]-amino}-cyclohexanecarboxylic acid] | > 7.00
6 | CC[C@H]1CC[C@](NC(=O)c2cnc(OC)c(-c3cccc(Cl)c3Cl)c2)(C(=O)O)CC1 [Example 300] | > 7.00
7 | CC[C@H]1CC[C@](NC(=O)c2cnc(OC)c(-c3cc(F)c(F)c(F)c3)c2)(C(=O)O)CC1 [Example 301] | > 7.00
8 | CC[C@H]1CC[C@](NC(=O)c2cnc(OC)c(-c3cc(Cl)cc(C(F)(F)F)c3)c2)(C(=O)O)CC1 [Example 302] | > 7.00
9 | CC[C@H]1CC[C@](NC(=O)c2cnc(OC)c(-c3cccc(C(F)(F)F)c3)c2)(C(=O)O)CC1 [Example 303] | > 7.00
10 | CC[C@H]1CC[C@](NC(=O)c2cnc(OC)c(-c3cccc(C(F)(F)F)c3F)c2)(C(=O)O)CC1 [Example 304] | > 7.00
11 | CC[C@H]1CC[C@@](NC(=O)c2cnc(OC)c(-c3cccc(OC(F)(F)F)c3)c2)(C(=O)O)CC1 [Example 306] | > 7.00
12 | COc1ncc(C(=O)N[C@]2(C(=O)O)CC[C@H](C)CC2)cc1-c1cccc(OC(F)(F)F)c1 [Example 307] | > 7.00
13 | COc1ncc(C(=O)N[C@]2(C(=O)O)CC[C@@H](C)CC2)cc1-c1cccc(OC(F)(F)F)c1 [Example 308] | > 7.00
14 | CC[C@H]1CC[C@@](NC(=O)c2cnc(OC)c(-c3cccc(Cl)c3Cl)c2)(C(=O)O)CC1 [Example 309] | > 7.00
15 | COc1ncc(C(=O)N[C@]2(C(=O)O)CC[C@H](C)CC2)cc1-c1cccc(Cl)c1Cl [Example 310] | > 7.00
16 | COc1ncc(C(=O)N[C@]2(C(=O)O)CC[C@@H](C)CC2)cc1-c1cccc(Cl)c1Cl [Example 311] | > 7.00
17 | CC[C@H]1CC[C@@](NC(=O)c2cnc(OC)c(-c3cc(F)c(F)c(F)c3)c2)(C(=O)O)CC1 [Example 312] | 6.00 to 7.00
18 | COc1ncc(C(=O)N[C@]2(C(=O)O)CC[C@H](C)CC2)cc1-c1cc(F)c(F)c(F)c1 [Example 313] | > 7.00
19 | COc1ncc(C(=O)N[C@]2(C(=O)O)CC[C@@H](C)CC2)cc1-c1cc(F)c(F)c(F)c1 [Example 314] | > 7.00
20 | COc1ncc(C(=O)N[C@]2(C(=O)O)CC[C@@H](C)CC2)cc1-c1cc(Cl)cc(C(F)(F)F)c1 [Example 315] | > 7.00

Row | Structure (SMILES) | pIC50
21 | CC[C@H]1CC[C@@](NC(=O)c2cnc(OC)c(-c3cccc(C(F)(F)F)c3)c2)(C(=O)O)CC1 [Example 316] | > 7.00
22 | COc1ncc(C(=O)N[C@]2(C(=O)O)CC[C@H](C)CC2)cc1-c1cccc(C(F)(F)F)c1 [Example 317] | > 7.00
23 | COc1ncc(C(=O)N[C@]2(C(=O)O)CC[C@@H](C)CC2)cc1-c1cccc(C(F)(F)F)c1 [Example 318] | > 7.00
24 | COc1ccc(-c2cc(C(=O)N[C@]3(C(=O)O)CC[C@H](C)CC3)cnc2OC)cc1Cl [Example 319] | > 7.00
25 | COc1ccc(-c2cc(C(=O)N[C@]3(C(=O)O)CC[C@@H](C)CC3)cnc2OC)cc1Cl [Example 320] | > 7.00
26 | CC[C@H]1CC[C@](NC(=O)c2ccc(OC)c(-c3cccc(OC(F)(F)F)c3)c2)(C(=O)O)CC1 [Example 327] | > 7.00
27 | CC[C@H]1CC[C@@](NC(=O)c2ccc(OC)c(-c3cccc(OC(F)(F)F)c3)c2)(C(=O)O)CC1 [Example 328] | 6.00 to 7.00
28 | COc1ccc(C(=O)N[C@]2(C(=O)O)CC[C@H](C)CC2)cc1-c1cccc(OC(F)(F)F)c1 [Example 329] | > 7.00
29 | COc1ccc(C(=O)N[C@]2(C(=O)O)CC[C@@H](C)CC2)cc1-c1cccc(OC(F)(F)F)c1 [Example 330] | 4.52 to 6.00
30 | CC[C@H]1CC[C@](NC(=O)c2ccc(OC)c(-c3cccc(C(F)(F)F)c3)c2)(C(=O)O)CC1 [Example 331] | > 7.00
31 | CC[C@H]1CC[C@@](NC(=O)c2ccc(OC)c(-c3cccc(C(F)(F)F)c3)c2)(C(=O)O)CC1 [Example 332] | > 7.00
32 | COc1ccc(C(=O)N[C@]2(C(=O)O)CC[C@H](C)CC2)cc1-c1cccc(C(F)(F)F)c1 [Example 333] | > 7.00
33 | COc1ccc(C(=O)N[C@]2(C(=O)O)CC[C@@H](C)CC2)cc1-c1cccc(C(F)(F)F)c1 [Example 334] | 6.00 to 7.00
34 | CC[C@H]1CC[C@](NC(=O)c2ccc(OC)c(-c3ccc(OC)c(Cl)c3)c2)(C(=O)O)CC1 [Example 351] | > 7.00
35 | CC[C@H]1CC[C@@](NC(=O)c2ccc(OC)c(-c3ccc(OC)c(Cl)c3)c2)(C(=O)O)CC1 [Example 352] | > 7.00
36 | CC[C@H]1CC[C@@](NC(=O)c2cnc(OC)c(OCCc3ccccc3)c2)(C(=O)O)CC1 [Example 355, trans-4-Ethyl-1-[(6-methoxy-5-phenethyloxy-pyridine-3-carbonyl)-amino]-cyclohexanecarboxylic acid] | > 7.00
37 | COc1ncc(C(=O)N[C@]2(C(=O)O)CC[C@H](C)CC2)cc1OCCc1cccc(Cl)c1 [Example 356, cis-1-({5-[2-(3-Chloro-phenyl)-ethoxy]-6-methoxy-pyridine-3-carbonyl}-amino)-4-methyl-cyclohexanecarboxylic acid] | > 7.00
38 | CC[C@H]1CC[C@](NC(=O)c2cnc(OC)c(OCCc3cccc(Cl)c3)c2)(C(=O)O)CC1 [Example 357, cis-1-({5-[2-(3-Chloro-phenyl)-ethoxy]-6-methoxy-pyridine-3-carbonyl}-amino)-4-ethyl-cyclohexanecarboxylic acid] | > 7.00
39 | CC[C@H]1CC[C@](NC(=O)c2cnc(OC)c(OCCc3ccccc3)c2)(C(=O)O)CC1 [Example 358, cis-4-Ethyl-1-[(6-methoxy-5-phenethyloxy-pyridine-3-carbonyl)-amino]-cyclohexanecarboxylic acid] | > 7.00
40 | CC[C@H]1CC[C@](NC(=O)c2cnc(OC)c(-c3ccc(F)c(F)c3)c2)(C(=O)O)CC1 [Example 359, cis-1-{[5-(3,4-Difluoro-phenyl)-6-methoxy-pyridine-3-carbonyl]-amino}-4-ethyl-cyclohexanecarboxylic acid] | > 7.00

Row | Structure (SMILES) | pIC50
41 | CC[C@H]1CC[C@](NC(=O)c2cnc(OC)c(-c3cc(F)cc(F)c3)c2)(C(=O)O)CC1 [Example 360, cis-1-{[5-(3,5-Difluoro-phenyl)-6-methoxy-pyridine-3-carbonyl]-amino}-4-ethyl-cyclohexanecarboxylic acid] | > 7.00
42 | CC[C@@H]1C[C@]1(NC(=O)c1cnc(OC)c(OCCc2cccc(Cl)c2)c1)C(=O)O [Example 361, (1R,2R)-1-({5-[2-(3-Chloro-phenyl)-ethoxy]-6-methoxy-pyridine-3-carbonyl}-amino)-2-ethyl-cyclopropanecarboxylic acid] | > 7.00
43 | CC[C@H]1CC[C@@](NC(=O)c2cc(F)c(OCCO)c(-c3cccc(C(F)(F)F)c3)c2)(C(=O)O)CC1 [Example 362, trans-4-Ethyl-1-{[5-fluoro-6-(2-hydroxy-ethoxy)-3′-trifluoromethyl-biphenyl-3-carbonyl]-amino}-cyclohexanecarboxylic acid] | > 7.00
44 | COc1ccc(C(=O)NC2(C(=O)O)CCCCCC2)cc1OCCc1cccc(C(F)(F)F)c1 [Example 363] | 6.00 to 7.00
45 | COc1ccc(C(=O)NC2(C(=O)O)CCCCCC2)cc1OCCc1ccccc1Cl [Example 364] | > 7.00
46 | COc1ccc(C(=O)NC2(C(=O)O)CCCCCC2)cc1OCCc1cccc(F)c1 [Example 365] | 6.00 to 7.00
47 | COc1ccc(C(=O)NC2(C(=O)O)CCC(C(C)(C)C)CC2)cc1OCCc1cccc(C)c1 (stereo not drawn) [Example 366] | 6.00 to 7.00
48 | COc1ccc(C(=O)NC2(C(=O)O)CCCC(C)C2)cc1OCCc1cccc(C)c1 (stereo not drawn) [Example 367] | 6.00 to 7.00
49 | COc1ccc(C(=O)NC2(C(=O)O)CC2)cc1OCCc1cccc(C)c1 [Example 368] | 6.00 to 7.00
50 | COc1ccc(C(=O)NC2(C(=O)O)CCC(C(F)(F)F)CC2)cc1OCCc1cccc(C)c1 (stereo not drawn) [Example 369] | 6.00 to 7.00
51 | COc1ccc(C(=O)NC2(C(=O)O)CCC(C(C)C)CC2)cc1OCCc1cccc(C)c1 (stereo not drawn) [Example 370] | > 7.00
52 | COc1ccc(C(=O)NC2(C(=O)O)CCC(C(C)(C)C)CC2)cc1OCCc1cccc(C)c1 (stereo not drawn) [Example 371] | 6.00 to 7.00
53 | COc1ccc(C(=O)NC2(C(=O)O)CCCC(C)C2)cc1OCCc1cccc(C)c1 (stereo not drawn) [Example 372] | 6.00 to 7.00
54 | COc1ccc(C(=O)NC2(C(=O)O)CCC(C)C2)cc1OCCc1cccc(C)c1 (stereo not drawn) [Example 373] | 6.00 to 7.00
55 | COc1ccc(C(=O)NC2(C(=O)O)CCC(OC)CC2)cc1OCCc1cccc(C)c1 (stereo not drawn) [Example 374] | > 7.00
56 | COc1ncc(C(=O)N[C@]2(C(=O)O)CC[C@H](C(F)(F)F)CC2)cc1-c1cc(F)c(F)c(F)c1 [Example 375] | > 7.00
57 | COc1ncc(C(=O)N[C@]2(C(=O)O)CC[C@H](C(F)(F)F)CC2)cc1-c1cccc(C(F)(F)F)c1 [Example 376] | > 7.00
58 | COc1ncc(C(=O)N[C@]2(C(=O)O)CC[C@H](C(F)(F)F)CC2)cc1-c1cccc(C(F)(F)F)c1F [Example 377] | > 7.00
59 | COc1ncc(C(=O)N[C@]2(C(=O)O)CC[C@H](C(F)(F)F)CC2)cc1-c1cccc(Cl)c1Cl [Example 378] | > 7.00
60 | COc1ncc(C(=O)N[C@]2(C(=O)O)CC[C@H](C(F)(F)F)CC2)cc1-c1cccc(OC(F)(F)F)c1 [Example 379] | > 7.00
